How the values were obtained:
Test in all cases: relative viability (nuclei count vs DMSO), 5 days (fraction); higher = more cells survive
201T = test system: 201T
How it was run: (§1)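 Cells from lung cancer lines were seeded into 1536-well plates and, one day later, dosed by pin tool. Treatments were either a single drug or a fixed dose of an anchor drug with five library-drug doses (not always all listed) in √10 steps. After 5 days, nuclei were stained in a one-step fixation (final 0.05% Triton X-100, 1% formaldehyde, 1 ug/ml Hoechst) and counted on 4× images, and relative viability is the treated-to-vehicle nuclei ratio, as the median of duplicate plates.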

COR-L23 = test system: COR-L23
How it was run: as §1

EPLC-272H = test system: EPLC-272H
How it was run: as §1

H3255 = test system: H3255
How it was run: as §1

LOU-NH91 = test system: LOU-NH91
How it was run: as §1

NCI-H1563 = test system: NCI-H1563
How it was run: as §1

NCI-H1650 = test system: NCI-H1650
How it was run: as §1

NCI-H1734 = test system: NCI-H1734
How it was run: as §1

NCI-H1793 = test system: NCI-H1793
How it was run: as §1

NCI-H1993 = test system: NCI-H1993
How it was run: as §1

NCI-H2023 = test system: NCI-H2023
How it was run: as §1

NCI-H2085 = test system: NCI-H2085
How it was run: as §1

NCI-H2170 = test system: NCI-H2170
How it was run: as §1

NCI-H2347 = test system: NCI-H2347
How it was run: as §1

NCI-H2405 = test system: NCI-H2405
How it was run: as §1

NCI-H3122 = test system: NCI-H3122
How it was run: as §1

NCI-H441 = test system: NCI-H441
How it was run: as §1

NCI-H520 = test system: NCI-H520
How it was run: as §1

NCI-H647 = test system: NCI-H647
How it was run: as §1

PC-14 = test system: PC-14
How it was run: as §1

RERF-LC-KJ = test system: RERF-LC-KJ
How it was run: as §1

SW 900 = test system: SW 900
How it was run: as §1

NC(=O)Nc1cc(-c2cccc(F)c2)sc1C(=O)N[C@H]1CCCNC1 [AZD7762] + Cc1nc(Nc2ncc(C(=O)Nc3c(C)cccc3Cl)s2)cc(N2CCN(CCO)CC2)n1 [Dasatinib] (partner 0.075 µM)
relative viability (201T; first compound 0.01 µM): 0.592 | relative viability (201T; first compound 0.03162 µM): 0.584 | relative viability (201T; first compound 0.1 µM): 0.602 | relative viability (201T; first compound 0.3162 µM): 0.567 | relative viability (201T; first compound 1 µM): 0.473 | relative viability (COR-L23; first compound 0.01 µM): 0.477 | relative viability (COR-L23; first compound 0.03162 µM): 0.528 | relative viability (COR-L23; first compound 0.1 µM): 0.515 | relative viability (COR-L23; first compound 0.3162 µM): 0.313 | relative viability (COR-L23; first compound 1 µM): 0.0945 | relative viability (EPLC-272H; first compound 0.01 µM): 0.338 | relative viability (EPLC-272H; first compound 0.03162 µM): 0.384 | relative viability (EPLC-272H; first compound 0.1 µM): 0.365 | relative viability (EPLC-272H; first compound 0.3162 µM): 0.3 | relative viability (EPLC-272H; first compound 1 µM): 0.0994 | relative viability (H3255; first compound 0.01 µM): 0.347 | relative viability (H3255; first compound 0.03162 µM): 0.307 | relative viability (H3255; first compound 0.1 µM): 0.44 | relative viability (H3255; first compound 0.3162 µM): 0.352 | relative viability (H3255; first compound 1 µM): 0.319 | relative viability (LOU-NH91; first compound 0.01 µM): 0.561 | relative viability (LOU-NH91; first compound 0.03162 µM): 0.596 | relative viability (LOU-NH91; first compound 0.1 µM): 0.558 | relative viability (LOU-NH91; first compound 0.3162 µM): 0.517 | relative viability (LOU-NH91; first compound 1 µM): 0.49 | relative viability (NCI-H1563; first compound 0.01 µM): 0.451 | relative viability (NCI-H1563; first compound 0.03162 µM): 0.492 | relative viability (NCI-H1563; first compound 0.1 µM): 0.5 | relative viability (NCI-H1563; first compound 0.3162 µM): 0.524 | relative viability (NCI-H1563; first compound 1 µM): 0.419 | relative viability (NCI-H1650; first compound 0.01 µM): 0.313 | relative viability (NCI-H1650; first compound 0.03162 µM): 0.311 | relative viability (NCI-H1650; first compound 0.1 µM): 0.314 | relative viability (NCI-H1650; first compound 0.3162 µM): 0.264 | relative viability (NCI-H1650; first compound 1 µM): 0.19 | relative viability (NCI-H1734; first compound 0.01 µM): 0.537 | relative viability (NCI-H1734; first compound 0.03162 µM): 0.542 | relative viability (NCI-H1734; first compound 0.1 µM): 0.493 | relative viability (NCI-H1734; first compound 0.3162 µM): 0.394 | relative viability (NCI-H1734; first compound 1 µM): 0.35 | relative viability (NCI-H1793; first compound 0.01 µM): 0.408 | relative viability (NCI-H1793; first compound 0.03162 µM): 0.388 | relative viability (NCI-H1793; first compound 0.1 µM): 0.426 | relative viability (NCI-H1793; first compound 0.3162 µM): 0.482 | relative viability (NCI-H1793; first compound 1 µM): 0.276 | relative viability (NCI-H1993; first compound 0.01 µM): 0.629 | relative viability (NCI-H1993; first compound 0.03162 µM): 0.599 | relative viability (NCI-H1993; first compound 0.1 µM): 0.481 | relative viability (NCI-H1993; first compound 0.3162 µM): 0.574 | relative viability (NCI-H1993; first compound 1 µM): 0.588 | relative viability (NCI-H2023; first compound 0.01 µM): 0.513 | relative viability (NCI-H2023; first compound 0.03162 µM): 0.425 | relative viability (NCI-H2023; first compound 0.1 µM): 0.328 | relative viability (NCI-H2023; first compound 0.3162 µM): 0.159 | relative viability (NCI-H2023; first compound 1 µM): 0.0942 | relative viability (NCI-H2085; first compound 0.01 µM): 0.247 | relative viability (NCI-H2085; first compound 0.03162 µM): 0.254 | relative viability (NCI-H2085; first compound 0.1 µM): 0.243 | relative viability (NCI-H2085; first compound 0.3162 µM): 0.201 | relative viability (NCI-H2085; first compound 1 µM): 0.216 | relative viability (NCI-H2170; first compound 0.01 µM): 0.602 | relative viability (NCI-H2170; first compound 0.03162 µM): 0.584 | relative viability (NCI-H2170; first compound 0.1 µM): 0.507 | relative viability (NCI-H2170; first compound 0.3162 µM): 0.529 | relative viability (NCI-H2170; first compound 1 µM): 0.401 | relative viability (NCI-H2347; first compound 0.01 µM): 0.36 | relative viability (NCI-H2347; first compound 0.03162 µM): 0.306 | relative viability (NCI-H2347; first compound 0.1 µM): 0.346 | relative viability (NCI-H2347; first compound 0.3162 µM): 0.35 | relative viability (NCI-H2347; first compound 1 µM): 0.253 | relative viability (NCI-H2405; first compound 0.01 µM): 0.234 | relative viability (NCI-H2405; first compound 0.03162 µM): 0.216 | relative viability (NCI-H2405; first compound 0.1 µM): 0.228 | relative viability (NCI-H2405; first compound 0.3162 µM): 0.157 | relative viability (NCI-H2405; first compound 1 µM): 0.177 | relative viability (NCI-H3122; first compound 0.01 µM): 0.893 | relative viability (NCI-H3122; first compound 0.03162 µM): 0.739 | relative viability (NCI-H3122; first compound 0.1 µM): 0.823 | relative viability (NCI-H3122; first compound 0.3162 µM): 0.544 | relative viability (NCI-H3122; first compound 1 µM): 0.625 | relative viability (NCI-H441; first compound 0.01 µM): 0.773 | relative viability (NCI-H441; first compound 0.03162 µM): 0.68 | relative viability (NCI-H441; first compound 0.1 µM): 0.555 | relative viability (NCI-H441; first compound 0.3162 µM): 0.556 | relative viability (NCI-H441; first compound 1 µM): 0.384 | relative viability (NCI-H520; first compound 0.01 µM): 0.212 | relative viability (NCI-H520; first compound 0.03162 µM): 0.18 | relative viability (NCI-H520; first compound 0.1 µM): 0.192 | relative viability (NCI-H520; first compound 0.3162 µM): 0.16 | relative viability (NCI-H520; first compound 1 µM): 0.189 | relative viability (NCI-H647; first compound 0.01 µM): 0.214 | relative viability (NCI-H647; first compound 0.03162 µM): 0.184 | relative viability (NCI-H647; first compound 0.1 µM): 0.197 | relative viability (NCI-H647; first compound 0.3162 µM): 0.143 | relative viability (NCI-H647; first compound 1 µM): 0.0925 | relative viability (PC-14; first compound 0.01 µM): 0.281 | relative viability (PC-14; first compound 0.03162 µM): 0.254 | relative viability (PC-14; first compound 0.1 µM): 0.211 | relative viability (PC-14; first compound 0.3162 µM): 0.0804 | relative viability (PC-14; first compound 1 µM): 0.0213 | relative viability (RERF-LC-KJ; first compound 0.01 µM): 0.847 | relative viability (RERF-LC-KJ; first compound 0.03162 µM): 0.896 | relative viability (RERF-LC-KJ; first compound 0.1 µM): 0.858 | relative viability (RERF-LC-KJ; first compound 0.3162 µM): 0.782 | relative viability (RERF-LC-KJ; first compound 1 µM): 0.563 | relative viability (SW 900; first compound 0.01 µM): 0.421 | relative viability (SW 900; first compound 0.03162 µM): 0.776 | relative viability (SW 900; first compound 0.1 µM): 0.625 | relative viability (SW 900; first compound 0.3162 µM): 0.674 | relative viability (SW 900; first compound 1 µM): 0.165

Reference: the supplement of paper PMC10307832
